Results reported in ChEMBL document CHEMBL2146412, “Antibacterial spirobisnaphthalenes from the North American cup fungus Urnula craterium” (J Nat Prod, 2012).
Values after ≈ are worked out from the molar mass of the structure shown. Active and inactive are the calls of the source. The rule behind the calls is not given here.

Legend:
Streptococcus pyogenes = assay: Antibacterial activity against Streptococcus pyogenes UWL; assay type: functional
Enterococcus faecalis = assay: Antibacterial activity against Enterococcus faecalis ATCC 29212; assay type: functional
Staphylococcus aureus [1] = assay: Antibacterial activity against methicillin-resistant Staphylococcus aureus MW2; assay type: functional
Enterococcus faecium = assay: Antibacterial activity against vancomycin-resistant Enterococcus faecium VRE1; assay type: functional
Staphylococcus aureus [2] = assay: Antibacterial activity against Staphylococcus aureus ATCC 29213; assay type: functional
J774.A1 = assay: Cytotoxicity against mouse J774A1 cells by trypan blue exclusion assay; assay type: cell-based
Escherichia coli = assay: Antibacterial activity against Escherichia coli; assay type: functional, organism-based
Pseudomonas aeruginosa = assay: Antibacterial activity against Pseudomonas aeruginosa; assay type: functional, organism-based

CN(C)[C@@H]1C(O)=C(C(N)=O)C(=O)[C@@]2(O)C(O)=C3C(=O)c4c(O)cccc4[C@@](C)(O)[C@H]3C[C@@H]12 [TETRACYCLINE]
MIC (Streptococcus pyogenes): 0.125 mg/L (≈ 0.281 µM) | MIC (Enterococcus faecalis): 16 mg/L (≈ 36 µM) | MIC (Staphylococcus aureus [1]): 0.125 mg/L (≈ 0.281 µM) | MIC (Enterococcus faecium): 4 mg/L (≈ 9 µM) | MIC (Staphylococcus aureus [2]): 0.25 mg/L (≈ 0.563 µM)

O=C1C=C[C@]2(O[C@@H]3c4c2ccc(O)c4C(=O)[C@@H]2O[C@H]32)c2cccc(O)c21 [URNUCRATIN A]
IC50 (J774.A1): > 100 µM | MIC (Streptococcus pyogenes): 0.5 mg/L (≈ 1.44 µM) | MIC (Enterococcus faecalis): 0.5 mg/L (≈ 1.44 µM) | MIC (Staphylococcus aureus [1]): 2 mg/L (≈ 5.74 µM) | Activity (Escherichia coli): inactive | Activity (Pseudomonas aeruginosa): inactive | MIC (Enterococcus faecium): 1 mg/L (≈ 2.87 µM) | MIC (Staphylococcus aureus [2]): 2 mg/L (≈ 5.74 µM)

COc1cccc2c1C(=O)C=C[C@]21O[C@@H]2c3c1ccc(O)c3C(=O)[C@@H]1O[C@H]21 [URNUCRATIN B]
IC50 (J774.A1): > 100 µM | MIC (Streptococcus pyogenes): 4 mg/L (≈ 11 µM) | MIC (Enterococcus faecalis): 8 mg/L (≈ 22.1 µM) | MIC (Staphylococcus aureus [1]): 8 mg/L (≈ 22.1 µM) | Activity (Escherichia coli): inactive | Activity (Pseudomonas aeruginosa): inactive | MIC (Enterococcus faecium): 8 mg/L (≈ 22.1 µM) | MIC (Staphylococcus aureus [2]): 8 mg/L (≈ 22.1 µM)

COc1cccc2c1C(=O)C=C[C@]21O[C@@H]2c3c1ccc(O)c3[C@H](O)[C@@H]1O[C@@H]12 [URNUCRATIN C]
IC50 (J774.A1): > 100 µM | MIC (Streptococcus pyogenes): 64 mg/L (≈ 176 µM) | MIC (Enterococcus faecalis): 64 mg/L (≈ 176 µM) | MIC (Staphylococcus aureus [1]): 64 mg/L (≈ 176 µM) | Activity (Escherichia coli): inactive | Activity (Pseudomonas aeruginosa): inactive | MIC (Enterococcus faecium): 64 mg/L (≈ 176 µM) | MIC (Staphylococcus aureus [2]): 64 mg/L (≈ 176 µM)

CN[C@H](CC(C)C)C(=O)N[C@H]1C(=O)N[C@@H](CC(N)=O)C(=O)N[C@H]2C(=O)N[C@H]3C(=O)N[C@H](C(=O)N[C@H](C(=O)O)c4cc(O)cc(O)c4-c4cc3ccc4O)[C@H](O)c3ccc(c(Cl)c3)Oc3cc2cc(c3O[C@@H]2O[C@H](CO)[C@@H](O)[C@H](O)[C@H]2O[C@H]2C[C@](C)(N)[C@H](O)[C@H](C)O2)Oc2ccc(cc2Cl)[C@H]1O [VANCOMYCIN]
MIC (Streptococcus pyogenes): 1 mg/L (≈ 0.69 µM) | MIC (Enterococcus faecalis): 2 mg/L (≈ 1.38 µM) | MIC (Enterococcus faecium): 64 mg/L (≈ 44.2 µM)

COc1ccc(C[C@H](N)C(=O)N[C@H]2[C@@H](O)[C@H](n3cnc4c(N(C)C)ncnc43)O[C@@H]2CO)cc1 [PUROMYCIN]
IC50 (J774.A1): 10 µM
